Results on eleven compounds are retold here after ChEMBL document CHEMBL1201862, “PubChem BioAssay data set” (2004).

SMILES strings stand for the structures.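 Grown in 96-well plates, cells were treated for 48 hours with each compound at five concentrations. Insufficient inhibition: endpoint recorded as highest concentration tested. GI50 is the concentration that inhibits growth by half.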 Active and inactive are the calls of the source. Rule as the data show it: active = GI50 up to about 1.1 µM and inactive = higher.

Common to all, as to assay: NCI anticancer screen, dose series, 48 h
Assay [1] deals with A549.
Assay [2] has as its system ACHN.
Assay [3] deals with HL-60.
Assay [4] has as its system HOP-62.
Assay [5] has as its system HOP-92.
The subject of assay [6] is IGROV-1.
For assay [7], the system named is KM12.
Assay [8] concerns LOX IMVI.
The test system of assay [9] is MDA-MB-231.
The subject of assay [10] is MDA-MB-435.
Assay [11] has as its system MDA-N.
For assay [12], the system named is Malme-3M.
Assay [13] deals with NCI-H23.
The subject of assay [14] is OVCAR-5.
The test system of assay [15] is RPMI-8226.
Assay [16] has as its system SK-MEL-28.
The subject of assay [17] is SNB-75.
Assay [18] deals with U-251.
In assay [19] the test system is UACC-257.

With `O=C(NNC(=O)c1ccccc1SSc1ccccc1C(=O)NNC(=O)c1ccccc1S)c1ccccc1S`, the GI50 in assay [1] was 13.4 µM (inactive); in [2], 19.3 µM (inactive); in assay [3], 1.73 µM (inactive); in assay [4], 25.9 µM (inactive); in assay [5], 39.2 µM (inactive); in [6], 11.6 µM (inactive). Besides, the GI50 in assay [7] was 30.5 µM (inactive); in [8] it was 11.9 µM (inactive); in [9] it was 19.6 µM (inactive); in assay [10] it was 16.1 µM (inactive); in assay [11], 20 µM (inactive); in assay [12], 21.6 µM (inactive). In addition, the GI50 was 12.3 µM (inactive) in assay [13]; 44.5 µM (inactive) in assay [14]; 43.1 µM (inactive) in assay [15]; 24.3 µM (inactive) in [16]; 11.7 µM (inactive) in [17]; 19.5 µM (inactive) in assay [18]. The GI50 in assay [19] was 27.7 µM (inactive).
Take `C=C(C=O)c1c2c(nc3ccccc13)C(=O)c1ccccc1C2=O`: the GI50 was 1.86 µM (inactive) in assay [1]; 0.434 µM (active) in assay [2]; 0.31 µM (active) in assay [3]; 1.15 µM (inactive) in assay [4]; 1.67 µM (inactive) in assay [5]; 0.252 µM (active) in [6]. The GI50 is 1.22 µM (inactive) in assay [7]; 0.316 µM (active) in [8]; 1.18 µM (inactive) in assay [9]; 0.273 µM (active) in assay [10]; 0.202 µM (active) in assay [11]; 1.42 µM (inactive) in assay [12]. Besides, the GI50 in assay [13] was 0.481 µM (active); in assay [14], 1.9 µM (inactive); in [15], 0.296 µM (active); in assay [16] it was 0.684 µM (active); in assay [17], 1.14 µM (inactive); in assay [18], 0.482 µM (active). The GI50 in [19] was 1.49 µM (inactive).
In the case of `Cc1c(C)c(C)c(-n2c(=O)n(C)c(=O)n2-c2cc(C(C)(C)C)cc(C(C)(C)C)c2O)c(C)c1C`, the GI50 in assay [1] was 5.66 µM (inactive); in assay [2], 12.2 µM (inactive); in assay [3], 3.04 µM (inactive); in assay [4], 14.4 µM (inactive); in assay [5], 5.5 µM (inactive); in [6] it was 10.1 µM (inactive). For the same compound, the GI50 in [7] is 11.8 µM (inactive); in [8], 13.6 µM (inactive); in [9], 3.91 µM (inactive); in [10], 11.9 µM (inactive); in assay [11] it was 10.5 µM (inactive); in assay [12] it was 11.9 µM (inactive). Further, the GI50 in assay [13] was 7.91 µM (inactive); in [14], 13.3 µM (inactive); in [15], 4.63 µM (inactive); in assay [16], 13.7 µM (inactive); in [17] it was 4.14 µM (inactive); in assay [18] it was 6.95 µM (inactive). The GI50 in [19] was 9.66 µM (inactive).
With `[O-][S+]1SC(=S)C2C=CC=CC21` (stereo not given), the GI50 in [1] is 38.2 µM (inactive); in [2] it was > 100 µM (inactive); in [3], 1.62 µM (inactive); in assay [5], > 100 µM (inactive); in assay [6], 49.1 µM (inactive); in assay [7], > 100 µM (inactive). Also, the GI50 in [8] was 34.7 µM (inactive); in [9], > 100 µM (inactive); in assay [10] it was 80 µM (inactive); in [11] it was 40.8 µM (inactive); in assay [12], 95.9 µM (inactive); in assay [13], > 100 µM (inactive). Moreover, the GI50 in [14] was > 100 µM (inactive); in assay [15], 92.9 µM (inactive); in [16], > 100 µM (inactive); in [17], 74 µM (inactive); in assay [18], > 100 µM (inactive); in assay [19], 75.5 µM (inactive).
Turning to `CCCC(=O)NC(C(=O)OCC)(N1CCOCC1)C(F)(F)F` (stereo not given), the GI50 in assay [1], in [2], in [3], in assay [4], in [5] and in assay [6] was > 100 µM (inactive) throughout. Also, the GI50 in assay [7], in assay [8], in [9], in assay [10], in assay [11] and in assay [12] was > 100 µM (inactive) throughout. The GI50 in assay [13], in assay [14], in [15], in [16], in assay [17] and in assay [18] was > 100 µM (inactive) in each case. Besides, the GI50 in [19] was > 100 µM (inactive).
As for `Clc1ccc(Nc2nc(Cl)c3nc[nH]c3n2)cc1Cl`, the GI50 in assay [1] is 30.1 µM (inactive); in assay [2] it was 24.9 µM (inactive); in assay [3], 18.2 µM (inactive); in assay [4], 15.9 µM (inactive); in assay [5], 23.4 µM (inactive); in [6] it was 22.2 µM (inactive). For the same compound, the GI50 in assay [7] is 18.1 µM (inactive); in [8] it was 13.4 µM (inactive); in assay [9] it was 21.1 µM (inactive); in assay [10], 26.9 µM (inactive); in assay [11] it was 39.8 µM (inactive); in [12], 32.3 µM (inactive). Also, the GI50 in [13] was 25.4 µM (inactive); in [14], 48.8 µM (inactive); in [15], 29 µM (inactive); in assay [17], 18.8 µM (inactive); in assay [18] it was 29.1 µM (inactive); in assay [19], 31.8 µM (inactive).
As to `COc1ccc(/C=C(/C#N)C(N)=O)cc1OC`, the GI50 in assay [1], in assay [2], in assay [3], in [4], in assay [5] and in [6] was > 100 µM (inactive) throughout. Besides, the GI50 in assay [7], in [8], in assay [9], in [10], in assay [11] and in assay [12] was > 100 µM (inactive) throughout. Besides, the GI50 in assay [13], in [14], in assay [15], in [16], in assay [17] and in assay [18] was > 100 µM (inactive) throughout. Moreover, the GI50 in assay [19] is > 100 µM (inactive).
For the compound `O=C1CSC(c2cc3cc(Br)ccc3nc2Cl)N1c1ccc(Cl)cc1` (stereo not given), the GI50 in assay [1] is 28.1 µM (inactive); in assay [2], 13.5 µM (inactive); in assay [3], 20.7 µM (inactive); in assay [4], 25.8 µM (inactive); in assay [5], 37.2 µM (inactive); in assay [6], 16.8 µM (inactive). The GI50 in assay [7] is 13 µM (inactive); in assay [8], 16.1 µM (inactive); in [9] it was 33.1 µM (inactive); in assay [10], 16.8 µM (inactive); in assay [11] it was 27.4 µM (inactive); in [12], 25.7 µM (inactive). In addition, the GI50 in [13] is 31.3 µM (inactive); in assay [14] it was 94.8 µM (inactive); in assay [15], 25.4 µM (inactive); in [16], 33.7 µM (inactive); in [17], 52.2 µM (inactive); in assay [19], 14.8 µM (inactive).
Consider `COc1ccc(-c2cc(-c3ccccc3)n(C3OC(COC(C)=O)C(OC(C)=O)C(OC(C)=O)C3OC(C)=O)c(=S)c2C#N)cc1` (stereo not given), for which the GI50 was 10.6 µM (inactive) in [1]; 15.2 µM (inactive) in [2]; 2.61 µM (inactive) in assay [3]; 3.81 µM (inactive) in assay [4]; 4.39 µM (inactive) in [5]; 14.8 µM (inactive) in assay [6]. Besides, the GI50 was 16.9 µM (inactive) in assay [7]; 4.51 µM (inactive) in [8]; 4.79 µM (inactive) in [9]; 6.89 µM (inactive) in assay [10]; 8.05 µM (inactive) in assay [11]; 5.87 µM (inactive) in [12]. The GI50 in assay [13] is 19.3 µM (inactive); in [14], 15.7 µM (inactive); in assay [15], 3.28 µM (inactive); in assay [16], 12.6 µM (inactive); in [17], 6.38 µM (inactive); in assay [18], 6.79 µM (inactive).
In the case of `COc1cc(NC=C2C(=O)OC(C)(C)OC2=O)c(OC)c(C)c1OC`, the GI50 in [1], in [2], in assay [3], in assay [4], in assay [5] and in assay [6] was > 100 µM (inactive) each time. In addition, the GI50 in assay [7] was > 100 µM (inactive); in assay [8] it was > 100 µM (inactive); in [9] it was > 100 µM (inactive); in [10], > 100 µM (inactive); in [11] it was > 100 µM (inactive); in [12], > 65.2 µM (inactive). Also, the GI50 in assay [13] is > 100 µM (inactive); in assay [14], > 100 µM (inactive); in assay [15], > 100 µM (inactive); in assay [16], > 100 µM (inactive); in [17], > 88.3 µM (inactive); in assay [18], > 100 µM (inactive). In addition, the GI50 in assay [19] was > 100 µM (inactive).
With `COc1cc(N(CCC#N)CCC#N)ccc1/C=C1\SC(=S)NC1=O`, the GI50 in assay [1], in assay [2], in assay [3], in [4], in [5] and in assay [6] was > 100 µM (inactive) throughout. Besides, the GI50 in assay [7], in assay [8], in [9], in assay [10], in assay [11] and in assay [12] was > 100 µM (inactive) each time. Also, the GI50 in assay [13], in assay [14], in assay [15], in assay [16], in [17] and in assay [18] was > 100 µM (inactive) each time. The GI50 in [19] was > 100 µM (inactive).
